Results as given in patent US20260133203A1, “DETECTION OF FUMARATE-DERIVED MODIFICATION IN A TEST SAMPLE” (UNIVERSITY OF SOUTH CAROLINA, priority 2017, published 2026).
Structures can show the parent of a compound that is named as a salt.

Target: T1, Collapsin Response Mediator 2 (CRMP2) (Rattus norvegicus, UniProt P47942)
T1 construct: Primary neurons from newborn rat brain cortices were isolated and cultured; endogenous in cells; host or cells: primary rat cortical neurons (postnatal day 1)
Test: LC-MS/MS site mapping of CRMP2 peptide GLYDGPVCEVSVTPK succination
Assay type: cell-based
Details: primary rat neurons, +2 charge-state, y8 and b8 fragment ions
Method: Primary neurons from newborn rat brain cortices were isolated and cultured using an adaptation of methods described previously. Briefly, postnatal day 1 rats were sacrificed by decapitation, the brains were aseptically dissected, and cortices were separated from the rest of the brain in ice-cold Hibernate®-A medium (Life Technologies) containing 2% (v/v) B-27 supplement (Life Technologies) and 0.5 mM glutamine (Invitrogen™). The tissue was minced in fragments of about 1 mm3 with a scalpel and subjected to digestion with 2 mg/ml papain (Worthington) in the supplemented Hibernate®-A medium for 20 minutes at 30° C. in a shaker incubator set at 100 rpm. After thorough trituration through a fire-polished Pasteur pipette, the tissue was allowed to settle for 5 minutes and the supernatant was carefully layered on top of a discontinuous OptiPrep™ (Sigma-Aldrich™) gradient prepared in Hibernate®-A medium; the layers contained 35, 25, 20 and 15% OptiPrep™. […] After a centrifugation at 500 g for 5 min at room temperature, cells were resuspended in Neurobasal™—A medium containing 0.5 mM glutamine, 2% B-27 supplement, and 5 ng/ml bFGF (Invitrogen™); counted and plated on 24-well plates pretreated with 0.01% poly-L-lysine (Sigma-Aldrich™) at a density of 200,000 cells/well. […] The protein content in the different samples was determined by the Lowry assay. […]

site of succination on CRMP2: Cys504
Structure (SMILES): COC(=O)/C=C/C(=O)OC [DMF, dimethyl fumarate]
